Data: PubChem BioAssay (NCI)
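Values below derive from 48-hour exposures of cells grown in 96-well plates, with endpoints linearly interpolated between the two concentrations bracketing the appropriate inhibition level. The concentration for 50% growth inhibition is given as GI50. TGI: total growth inhibition.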

Columns and labels:
Experiment in all cases: growth of human tumour cells (NCI), 48 h
786-0 renal = system: 786-0 renal
A498 renal = system: A498 renal
A549 NSCLC = system: A549 NSCLC
ACHN renal = system: ACHN renal
BT-549 breast = system: BT-549 breast
CAKI-1 renal = system: CAKI-1 renal
CCRF-CEM leukemia = system: CCRF-CEM leukemia
COLO 205 colon = system: COLO 205 colon
DU-145 prostate = system: DU-145 prostate
EKVX NSCLC = system: EKVX NSCLC
HCC-2998 colon = system: HCC-2998 colon
HCT-116 colon = system: HCT-116 colon
HCT-15 colon = system: HCT-15 colon
HL-60(TB) leukemia = system: HL-60(TB) leukemia
HOP-62 NSCLC = system: HOP-62 NSCLC
HOP-92 NSCLC = system: HOP-92 NSCLC
HS 578T breast = system: HS 578T breast
IGROV1 ovarian = system: IGROV1 ovarian
K-562 leukemia = system: K-562 leukemia
KM12 colon = system: KM12 colon
LOX IMVI melanoma = system: LOX IMVI melanoma
M14 melanoma = system: M14 melanoma
MALME-3M melanoma = system: MALME-3M melanoma
MCF7 breast = system: MCF7 breast
MDA-MB-231 breast = system: MDA-MB-231 breast
MDA-MB-435 = system: MDA-MB-435
MDA-MB-468 breast = system: MDA-MB-468 breast
MOLT-4 leukemia = system: MOLT-4 leukemia
NCI-H226 lung = system: NCI-H226 lung
NCI-H23 lung = system: NCI-H23 lung
NCI-H460 lung = system: NCI-H460 lung
NCI-H522 lung = system: NCI-H522 lung
OVCAR-3 ovarian = system: OVCAR-3 ovarian
OVCAR-4 ovarian = system: OVCAR-4 ovarian
OVCAR-5 ovarian = system: OVCAR-5 ovarian
OVCAR-8 ovarian = system: OVCAR-8 ovarian
PC-3 prostate = system: PC-3 prostate
RPMI-8226 leukemia = system: RPMI-8226 leukemia
RXF 393 renal = system: RXF 393 renal
SF-268 CNS = system: SF-268 CNS
SF-295 CNS = system: SF-295 CNS
SF-539 CNS = system: SF-539 CNS
SK-MEL-2 melanoma = system: SK-MEL-2 melanoma
SK-MEL-28 melanoma = system: SK-MEL-28 melanoma
SK-MEL-5 melanoma = system: SK-MEL-5 melanoma
SK-OV-3 ovarian = system: SK-OV-3 ovarian
SN12C renal = system: SN12C renal
SNB-19 CNS = system: SNB-19 CNS
SNB-75 CNS = system: SNB-75 CNS
SR leukemia = system: SR leukemia
SW-620 colon = system: SW-620 colon
TK-10 renal = system: TK-10 renal
U251 CNS = system: U251 CNS
UACC-257 melanoma = system: UACC-257 melanoma
UACC-62 melanoma = system: UACC-62 melanoma
UO-31 renal = system: UO-31 renal

CSc1ccccc1NC(=O)c1ccc2nnn(/C(C#N)=C/c3ccccn3)c2c1
GI50 (786-0 renal): 1.82 µM
TGI (786-0 renal): 3.38 µM
GI50 (A498 renal): 15.3 µM
TGI (A498 renal): 28.6 µM
GI50 (A549 NSCLC): 10.2 µM
TGI (A549 NSCLC): 23.6 µM
GI50 (ACHN renal): 1.78 µM
TGI (ACHN renal): 3.17 µM
GI50 (BT-549 breast): 2.32 µM
TGI (BT-549 breast): 7.2 µM
GI50 (CAKI-1 renal): 1.55 µM
TGI (CAKI-1 renal): 2.92 µM
GI50 (CCRF-CEM leukemia): 3 µM
TGI (CCRF-CEM leukemia): > 100 µM
GI50 (COLO 205 colon): 2.02 µM
TGI (COLO 205 colon): 3.63 µM
GI50 (DU-145 prostate): 1.93 µM
TGI (DU-145 prostate): 3.64 µM
GI50 (EKVX NSCLC): 4.59 µM
TGI (EKVX NSCLC): 16.1 µM
GI50 (HCC-2998 colon): 1.78 µM
TGI (HCC-2998 colon): 3.33 µM
GI50 (HCT-116 colon): 1.8 µM
TGI (HCT-116 colon): 3.46 µM
GI50 (HCT-15 colon): 1.67 µM
TGI (HCT-15 colon): 3.54 µM
GI50 (HL-60(TB) leukemia): 1.9 µM
TGI (HL-60(TB) leukemia): 5.97 µM
GI50 (HOP-62 NSCLC): 15.7 µM
TGI (HOP-62 NSCLC): 30.9 µM
GI50 (HOP-92 NSCLC): 1.89 µM
TGI (HOP-92 NSCLC): 7.5 µM
GI50 (HS 578T breast): 3.29 µM
TGI (HS 578T breast): 13.3 µM
GI50 (IGROV1 ovarian): 2.07 µM
TGI (IGROV1 ovarian): 4.46 µM
GI50 (K-562 leukemia): 1.84 µM
TGI (K-562 leukemia): 6.86 µM
GI50 (KM12 colon): 3.08 µM
TGI (KM12 colon): 10.7 µM
GI50 (LOX IMVI melanoma): 1.7 µM
TGI (LOX IMVI melanoma): 3.19 µM
GI50 (M14 melanoma): 2 µM
TGI (M14 melanoma): 3.98 µM
GI50 (MALME-3M melanoma): 1.75 µM
TGI (MALME-3M melanoma): 3.29 µM
GI50 (MCF7 breast): 1.69 µM
TGI (MCF7 breast): 3.36 µM
GI50 (MDA-MB-231 breast): 1.99 µM
TGI (MDA-MB-231 breast): 4.06 µM
GI50 (MDA-MB-435): 2.07 µM
TGI (MDA-MB-435): 4.89 µM
GI50 (MDA-MB-468 breast): 1.6 µM
TGI (MDA-MB-468 breast): 3.32 µM
GI50 (MOLT-4 leukemia): 3.29 µM
TGI (MOLT-4 leukemia): 9.07 µM
GI50 (NCI-H226 lung): 13.9 µM
TGI (NCI-H226 lung): 32.9 µM
GI50 (NCI-H23 lung): 1.8 µM
TGI (NCI-H23 lung): 3.52 µM
GI50 (NCI-H460 lung): 3.24 µM
TGI (NCI-H460 lung): 11.1 µM
GI50 (NCI-H522 lung): 1.56 µM
TGI (NCI-H522 lung): 3.22 µM
GI50 (OVCAR-3 ovarian): 1.77 µM
TGI (OVCAR-3 ovarian): 3.48 µM
GI50 (OVCAR-4 ovarian): 4.22 µM
TGI (OVCAR-4 ovarian): 17.3 µM
GI50 (OVCAR-5 ovarian): 1.84 µM
TGI (OVCAR-5 ovarian): 3.91 µM
GI50 (OVCAR-8 ovarian): 3.34 µM
TGI (OVCAR-8 ovarian): 12.7 µM
GI50 (PC-3 prostate): 4.09 µM
TGI (PC-3 prostate): 16.6 µM
GI50 (RPMI-8226 leukemia): 3.14 µM
TGI (RPMI-8226 leukemia): > 100 µM
GI50 (RXF 393 renal): 1.5 µM
TGI (RXF 393 renal): 2.86 µM
GI50 (SF-268 CNS): 11.5 µM
TGI (SF-268 CNS): 28.7 µM
GI50 (SF-295 CNS): 15.5 µM
TGI (SF-295 CNS): 28.8 µM
GI50 (SF-539 CNS): 1.84 µM
TGI (SF-539 CNS): 3.54 µM
GI50 (SK-MEL-2 melanoma): 2.25 µM
TGI (SK-MEL-2 melanoma): 5.22 µM
GI50 (SK-MEL-28 melanoma): 1.86 µM
TGI (SK-MEL-28 melanoma): 3.75 µM
GI50 (SK-MEL-5 melanoma): 3.37 µM
TGI (SK-MEL-5 melanoma): 12.1 µM
GI50 (SK-OV-3 ovarian): 18.6 µM
TGI (SK-OV-3 ovarian): 33.8 µM
GI50 (SN12C renal): 3.87 µM
TGI (SN12C renal): 14.1 µM
GI50 (SNB-19 CNS): 13.4 µM
TGI (SNB-19 CNS): 26.2 µM
GI50 (SNB-75 CNS): 10.1 µM
TGI (SNB-75 CNS): 21.7 µM
GI50 (SR leukemia): 2.51 µM
TGI (SR leukemia): 9.46 µM
GI50 (SW-620 colon): 1.86 µM
TGI (SW-620 colon): 3.54 µM
GI50 (TK-10 renal): 1.75 µM
TGI (TK-10 renal): 3.25 µM
GI50 (U251 CNS): 3.61 µM
TGI (U251 CNS): 12.9 µM
GI50 (UACC-257 melanoma): 2.02 µM
TGI (UACC-257 melanoma): 5.3 µM
GI50 (UACC-62 melanoma): 1.83 µM
TGI (UACC-62 melanoma): 3.84 µM
GI50 (UO-31 renal): 1.55 µM
TGI (UO-31 renal): 2.89 µM
